Assay results taken from article PMC5428418, “Differential expression of chemosensory-protein genes in midguts in response to diet of Spodoptera litura” (Scientific Reports, 2017).

These molecules were tested against recombinant SlitCSP11 (Spodoptera litura, UniProt A0A0P0EM27) (assay: not given). Conditions: competitive binding with 1-NPN.
Assay type: binding
Text: (§1) The curves were linearized by Scatchard plots.

Chain of recombinant SlitCSP11 (A0A0P0EM27 entry or part of it): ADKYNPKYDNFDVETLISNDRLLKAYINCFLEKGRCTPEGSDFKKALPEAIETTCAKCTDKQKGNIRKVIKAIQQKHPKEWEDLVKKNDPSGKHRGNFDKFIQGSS

SMILES	binding affinity to SlitCSP11 (in words)
CCc1ccco1 [2-Ethylfuran]	poor affinities
N#Cc1ccccc1 [Benzonitrile]	poor affinities
CCCCCCCCCC#N [Decanenitrile]	poor affinities
CCCCCC=O [Hexanal]	poor affinities

Same assay, conditions: competitor's concentration halving the initial fluorescence; protein 2 μM; ligand 0 to 20 μM; 1-NPN probe

SMILES	IC50 SlitCSP11
CCc1ccco1 [2-Ethylfuran]	u.d
O=Cc1ccc(CO)o1 [5-(Hydroxymethyl)furfural]	u.d
N#Cc1ccccc1 [Benzonitrile]	u.d
CCCCCCCCCC#N [Decanenitrile]	u.d
CCCCCC=O [Hexanal]	u.d
CC/C=C\CCO [cis-3-Hexen-1-ol]	u.d
CCC/C=C/C(=O)O [trans-2-Hexenoic acid]	u.d

Same assay, conditions: dissociation constant of the competitor calculated from IC50: KD = [IC50]/(1 + [1-NPN]/K1-NPN)

SMILES	Kd SlitCSP11
CCc1ccco1 [2-Ethylfuran]	u.d
O=Cc1ccc(CO)o1 [5-(Hydroxymethyl)furfural]	u.d
N#Cc1ccccc1 [Benzonitrile]	u.d
CCCCCCCCCC#N [Decanenitrile]	u.d
CCCCCC=O [Hexanal]	u.d
CC/C=C\CCO [cis-3-Hexen-1-ol]	u.d
CCC/C=C/C(=O)O [trans-2-Hexenoic acid]	u.d

These molecules were tested against recombinant SlitCSP3 (Spodoptera litura, UniProt A0A9J7EMU8) (assay: not given). Conditions: not given.
Assay type: binding
Text: as §1

Chain of recombinant SlitCSP3 (A0A9J7EMU8 entry or part of it): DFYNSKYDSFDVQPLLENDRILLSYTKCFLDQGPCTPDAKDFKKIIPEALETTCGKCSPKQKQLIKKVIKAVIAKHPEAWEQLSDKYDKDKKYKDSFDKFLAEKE

SMILES	Kd SlitCSP3	IC50 SlitCSP3
CCCCCC=O [Hexanal]	u.d	
c1ccncc1 [Pyridine]	u.d	u.d

Same assay, conditions: competitive binding with 1-NPN

SMILES	binding affinity to SlitCSP3 (in words)
CCc1ccco1 [2-Ethylfuran]	poor affinities
N#Cc1ccccc1 [Benzonitrile]	poor affinities
CCCCCCCCCC#N [Decanenitrile]	poor affinities
CCCCCC=O [Hexanal]	poor affinities

Same assay, conditions: competitor's concentration halving the initial fluorescence; protein 2 μM; ligand 0 to 20 μM; 1-NPN probe

SMILES	IC50 SlitCSP3
CCc1ccco1 [2-Ethylfuran]	u.d
N#Cc1ccccc1 [Benzonitrile]	u.d
OCc1ccccc1 [Benzyl alcohol]	u.d
CCCCN=C=S [Butyl isothiocyanate]	u.d
CCCCCCCCCC#N [Decanenitrile]	u.d
O=Cc1ccco1 [Furan-2-carboxaldehyde]	u.d
CCCCCCCCCCCCCCCC(=O)O [Hexadecanoic acid]	u.d
CCCCCC=O [Hexanal]	u.d
C=Cc1ccccc1 [Styrene]	u.d
CC/C=C\CCO [cis-3-Hexen-1-ol]	u.d

Same assay, conditions: dissociation constant of the competitor calculated from IC50: KD = [IC50]/(1 + [1-NPN]/K1-NPN)

SMILES	Kd SlitCSP3
CCc1ccco1 [2-Ethylfuran]	u.d
N#Cc1ccccc1 [Benzonitrile]	u.d
OCc1ccccc1 [Benzyl alcohol]	u.d
CCCCN=C=S [Butyl isothiocyanate]	u.d
CCCCCCCCCC#N [Decanenitrile]	u.d
O=Cc1ccco1 [Furan-2-carboxaldehyde]	u.d
CCCCCCCCCCCCCCCC(=O)O [Hexadecanoic acid]	u.d
C=Cc1ccccc1 [Styrene]	u.d
CC/C=C\CCO [cis-3-Hexen-1-ol]	u.d

What follows are molecules tested against recombinant SlitCSP8 (Spodoptera litura, UniProt A0A0P0EUM0) (assay: Fluorescence competitive binding assay (1-NPN displacement), SlitCSP8). Conditions: competitive binding with 1-NPN.
Chain of recombinant SlitCSP8 (A0A0P0EUM0 18-128 with tags or gaps limits assumed): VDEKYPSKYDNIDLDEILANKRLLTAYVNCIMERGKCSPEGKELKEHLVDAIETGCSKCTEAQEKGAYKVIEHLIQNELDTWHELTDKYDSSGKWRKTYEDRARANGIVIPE
Method: The fluorescence spectra were recorded on an F-4500 FL Fluorescence Spectrophotometer (HITACHI) in a 1 cm light path quartz cuvette at 23 °C. The slit width used for excitation and emission was 5 nm. The compounds used to investigate the binding abilities of SlitCSPs were purchased from Sigma-Aldrich with the highest purity and stored as specified instruction by the manufacturer. […] The fluorescent probe N-phenyl-1-naphthylamine (1 − NPN) and all ligands used in competition experiments were dissolved in HPLC purity grade methanol. […] And then, 2 μM of protein was added and titrated with aliquots of 1 mM 1 − NPN to final concentrations of 2 to 20 μM. […] All values reported were obtained from three independent measurements. The corresponding to the maximum fluorescence emission was plotted against the ligand concentrations for the determination of the binding constants. The curves were linearized by Scatchard plots.

SMILES	binding affinity to SlitCSP8 (in words)
CCc1ccco1 [2-Ethylfuran]	poor affinities
N#Cc1ccccc1 [Benzonitrile]	poor affinities
OCc1ccccc1 [Benzyl alcohol]	at low concentrations
CCCCCCCCCC#N [Decanenitrile]	poor affinities
NC(=O)c1ccncc1 [Isonicotinamide]	at low concentrations
CC/C=C\CCO [cis-3-Hexen-1-ol]	at low concentrations

Same assay, conditions: competitor's concentration halving the initial fluorescence; protein 2 μM; ligand 0 to 20 μM; 1-NPN probe

SMILES	IC50 SlitCSP8
CCc1ccco1 [2-Ethylfuran]	u.d
O=Cc1ccc(CO)o1 [5-(Hydroxymethyl)furfural]	u.d
N#Cc1ccccc1 [Benzonitrile]	u.d
CCCCN=C=S [Butyl isothiocyanate]	u.d
CCCCCCCCCC#N [Decanenitrile]	u.d
O=Cc1ccco1 [Furan-2-carboxaldehyde]	u.d
CCCCCCCCCCCCCCCC(=O)O [Hexadecanoic acid]	u.d
CC1CCC(C(C)C)C(O)C1 (stereo not shown) [Menthol]	ud
c1ccncc1 [Pyridine]	u.d
C=Cc1ccccc1 [Styrene]	u.d

Same assay, conditions: dissociation constant of the competitor calculated from IC50: KD = [IC50]/(1 + [1-NPN]/K1-NPN)

SMILES	Kd SlitCSP8
CCc1ccco1 [2-Ethylfuran]	u.d
O=Cc1ccc(CO)o1 [5-(Hydroxymethyl)furfural]	u.d
N#Cc1ccccc1 [Benzonitrile]	u.d
CCCCN=C=S [Butyl isothiocyanate]	u.d
CCCCCCCCCC#N [Decanenitrile]	u.d
CCCCCCCCCCCCCCCC(=O)O [Hexadecanoic acid]	u.d
CC1CCC(C(C)C)C(O)C1 (stereo not shown) [Menthol]	u.d
c1ccncc1 [Pyridine]	u.d
C=Cc1ccccc1 [Styrene]	u.d

Same assay, conditions: read-out: IC50 SlitCSP8; competitor's concentration halving the initial fluorescence; protein 2 μM; ligand 0 to 20 μM; 1-NPN probe

SMILES	IC50 [µM]
O=Cc1ccccc1 [Benzaldehyde]	5.26
S=C=NCCc1ccccc1 [Phenethyl isothiocyanate]	4.34

Same assay, conditions: read-out: Kd SlitCSP8; dissociation constant of the competitor calculated from IC50: KD = [IC50]/(1 + [1-NPN]/K1-NPN)

SMILES	Kd [µM]
O=Cc1ccccc1 [Benzaldehyde]	7.47
S=C=NCCc1ccccc1 [Phenethyl isothiocyanate]	6.17
